We go through two compounds from patent publication US20100249112A1, “COMBINATION OF CHK AND PARP INHIBITORS FOR THE TREATMENT OF CANCERS” (ASTRAZENECA R&D, priority 2007, published 2010).

Data set [1] is described as follows: Tolerability / max weight loss in the SW 620 tumor study. The conditions noted are these: for Max weight loss: 3 weeks, female nude mice. The data set is classed as in vivo. Here is the method: (§1) SW 620 tumors were staged in female nude mice as described in Chapter 31 “In vivo Tumor response End Points” by B. A. Teicher (see “Tumor Models in Cancer Research” edited by Beverly A. Teicher, p596. Published by Humana Press Inc. 2002). Treatment started when tumors reached ˜170 mm^3. There were 6 groups in this study with n=10/group. PARP inhibitor 4-[3-(4-Cyclopropanecarbonyl-piperazine-1-carbonyl)-4-fluoro-benzyl]-2H-phthalazin-1-one was given 5 times weekly at 50 mg/kg PO. CHK inhibitor 5-(3-Fluoro-phenyl)-3-ureido-thiophene-2-carboxylic acid (S)-piperidin-3-ylamide was given at 12.5 mg/kg and 25 mg/kg twice weekly IV. The combination groups received PARP inhibitor at 50 mg/kg (5 times a week) and, 2 hours later, the CHK inhibitor at 12.5 or 25 mg/kg (twice a week). Mice received 3 weeks of treatment. Overall, treatment was well tolerated except in one case where a mouse was receiving a CHK inhibitor in the 25 mg/kg group it was found dead prior to study endpoint.

The test system of another data set is SW 620 tumors. Briefly: SW 620 tumor growth inhibition in female nude mice. The data set is classed as in vivo. Particulars: 3 weeks. As for the experimental part: as §1
The subject of another data set is SW620 cell line. Briefly: MTS cell viability assay, CHK-PARP combination, SW620. The data set is classed as cell-based. Particulars: for IC50: Homo sapiens, SW-620, 96 h. Here is the method: (§2) Combination experiments were carried out to assess the ability of a CHK inhibitor, i.e., 5-(3-Fluoro-phenyl)-3-ureido-thiophene-2-carboxylic acid (S)-piperidin-3-ylamide, to sensitize cells to a PARP inhibitor, i.e., 4-[3-(4-Cyclopropanecarbonyl-piperazine-1-carbonyl)-4-fluoro-benzyl]-2H-phthalazin-1-one, using a cell viability endpoint.
(§3) The cell lines used in this study were SW620, which endogenously express mutant p53, and NCI-H460dominant negative p53 (NCI-H460dnp53), which are stably transfected to express dominant negative p53. Cells were seeded in 96-well plates on day 0 and treated with either a single drug or simultaneously with both drugs for 4 days beginning on Day 1.
(§4) For sequential addition, either the CHK inhibitor i.e., 5-(3-Fluoro-phenyl)-3-ureido-thiophene-2-carboxylic acid (S)-piperidin-3-ylamide, or the PARP inhibitor, i.e., 4-[3-(4-Cyclopropanecarbonyl-piperazine-1-carbonyl)-4-fluoro-benzyl]-2H-phthalazin-1-one, were added to cells for 24 hours beginning on Day 1, followed by addition of the other drug on Day 2, and exposure to both drugs continued for an additional 72 hours. […] Cells were dosed with the PARP inhibitor to generate a full dose-response curve. See Table 1 for an example of the drug concentrations used in each cell line.
(§5) Cell viability was measured on day 5 using an MTS colorimetric assay. Dose (concentration of drug used, uM) vs. Fraction unaffected (Fu) for PARP alone versus in combination were plotted. Replicate points for the constant concentration of the CHK inhibitor were also plotted. Data were analyzed by comparing the dose-response curve of the single agent to that for the combination.

A further data set has as its system NCI-H460dnp53 cell line. Briefly: MTS cell viability assay, CHK-PARP combination, NCI-H460dnp53. Type of data set: cell-based. As for the experimental part: as §2, §3, §4, §5

Structures are written as SMILES. Where two headings read alike, the source gives them in different places.

For `NC(=O)Nc1cc(-c2cccc(F)c2)sc1C(=O)N[C@H]1CCCNC1` [CHK inhibitor, 5-(3-Fluoro-phenyl)-3-ureido-thiophene-2-carboxylic acid (S)-piperidin-3-ylamide], the Max weight loss is 2% in data set [1] (12.5 mg/kg twice weekly IV) and 1% in data set [1] (25 mg/kg twice weekly IV). For the same compound, in data set [1] (25 mg/kg group, one mouse), the “Death prior to study endpoint” value was “found dead”. Moreover, the “Tumor Growth Inhibition %” value in the data set with SW 620 tumors (12.5 mg/kg twice weekly IV, p > 0.05) came out at 15%; with SW 620 tumors (25 mg/kg twice weekly IV, p > 0.05), 22%. For the same compound, the “Activity of CHK inhibitor as a single agent at the constant concentration used” value with SW620 cell line (0.28 uM, determined previously) is “little or no activity”; with NCI-H460dnp53 cell line (0.33 uM, determined previously), “little or no activity”.

As to `O=C(c1cc(Cc2n[nH]c(=O)c3ccccc23)ccc1F)N1CCN(C(=O)C2CC2)CC1` [PARP inhibitor, 4-[3-(4-Cyclopropanecarbonyl-piperazine-1-carbonyl)-4-fluoro-benzyl]-2H-phthalazin-1-one], the “Tumor Growth Inhibition %” value with SW 620 tumors (50 mg/kg PO 5 times weekly, p > 0.1) stood at 22%. For the same compound, the IC50 in the data set with SW620 cell line (constant CHK inhibitor 0.28 uM, simultaneous, 4 days, from 2 independent experiments, not directly comparable, read-out: IC50 of PARP inhibitor, CHK inhibitor + PARP inhibitor simultaneous) worked out at 5.8 µM; in the data set on SW620 cell line (single agent, 4 days exposure, representative, 3 experiments, read-out: IC50 of PARP inhibitor alone) it was 19.4 µM; in the data set with NCI-H460dnp53 cell line (96 h, constant CHK inhibitor 0.33 uM, simultaneous addition, 4 days, 3 experiments, read-out: IC50 of PARP inhibitor, CHK inhibitor + PARP inhibitor simultaneous), 1.9 µM; in the data set with NCI-H460dnp53 cell line (96 h, single agent, 4 days exposure, representative, 3 experiments, read-out: IC50 of PARP inhibitor alone), 17.6 µM; in the data set with NCI-H460dnp53 cell line (CHK inhibitor 24 hours, then both drugs for additional 72 hours, 1 experiment, read-out: IC50 of PARP inhibitor, CHK inhibitor followed by PARP inhibitor), 4.1 µM; with NCI-H460dnp53 cell line (PARP inhibitor 24 hours, then both drugs for additional 72 hours, 1 experiment, read-out: IC50 of PARP inhibitor, PARP inhibitor followed by CHK inhibitor), 3.6 µM.
